Results as given in paper PMC6099940, “Design, Synthesis and Biological Evaluation of Novel Phenylsulfonylurea Derivatives as PI3K/mTOR Dual Inhibitors” (Molecules : A Journal of Synthetic Chemistry and Natural …, 2018).
Like-named read-outs stand apart in the source and are kept apart here.

Experiments:
[1] = test system: PC-3; assay: In vitro cytotoxicity, MTT assay, PC-3; type: cell-based; settings: PC-3 cells, 72 h, average of two separate determinations
[2] = test system: A549; assay: In vitro cytotoxicity, MTT assay, A549; type: cell-based; settings: A549 cells, 72 h, average of two separate determinations
[3] = test system: MCF-7; assay: In vitro cytotoxicity, MTT assay, MCF-7; type: cell-based; settings: MCF-7 cells
[4] = test system: HepG-2; assay: In vitro cytotoxicity, MTT assay, HepG-2; type: cell-based; settings: 72 h, average of two separate determinations
[5] = biological target: PI3Kα (Homo sapiens, UniProt P42336); assay: PI3Kα kinase assay (Kinase-Glo Luminescent Kinase Assay); type: biochemical; settings: 1 µM ATP, 60 min, average of two determinations
PI3Kα, sequence (P42336 whole entry): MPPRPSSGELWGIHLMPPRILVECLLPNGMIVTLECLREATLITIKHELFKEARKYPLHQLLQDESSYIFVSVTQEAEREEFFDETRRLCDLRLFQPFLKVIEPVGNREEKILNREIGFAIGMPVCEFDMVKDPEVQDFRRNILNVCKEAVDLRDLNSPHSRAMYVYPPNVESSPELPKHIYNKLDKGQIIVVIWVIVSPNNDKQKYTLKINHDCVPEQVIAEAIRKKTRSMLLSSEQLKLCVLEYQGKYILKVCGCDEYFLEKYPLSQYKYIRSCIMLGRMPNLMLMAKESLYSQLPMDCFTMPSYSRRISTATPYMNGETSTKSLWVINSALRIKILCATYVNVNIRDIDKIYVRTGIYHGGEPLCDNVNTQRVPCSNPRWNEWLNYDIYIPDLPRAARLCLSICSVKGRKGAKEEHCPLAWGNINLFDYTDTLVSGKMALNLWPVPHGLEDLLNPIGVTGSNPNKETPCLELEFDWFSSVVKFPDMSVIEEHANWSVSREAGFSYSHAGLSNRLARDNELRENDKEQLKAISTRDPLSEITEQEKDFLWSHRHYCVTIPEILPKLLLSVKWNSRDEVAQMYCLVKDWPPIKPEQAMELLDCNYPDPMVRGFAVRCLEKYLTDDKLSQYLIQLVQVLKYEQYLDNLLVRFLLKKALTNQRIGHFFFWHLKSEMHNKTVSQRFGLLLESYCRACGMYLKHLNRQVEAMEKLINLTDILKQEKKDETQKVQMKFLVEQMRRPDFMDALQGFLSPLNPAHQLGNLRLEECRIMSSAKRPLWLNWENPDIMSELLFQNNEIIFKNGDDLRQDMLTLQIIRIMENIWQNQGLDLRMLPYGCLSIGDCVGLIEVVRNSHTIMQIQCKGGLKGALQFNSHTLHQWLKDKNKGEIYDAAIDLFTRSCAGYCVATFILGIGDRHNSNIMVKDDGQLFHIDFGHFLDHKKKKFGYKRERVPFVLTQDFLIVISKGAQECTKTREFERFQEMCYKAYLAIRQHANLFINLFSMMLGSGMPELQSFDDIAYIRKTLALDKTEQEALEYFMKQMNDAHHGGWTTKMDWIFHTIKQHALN
PI3Kα, sequence (P27986 whole entry partner): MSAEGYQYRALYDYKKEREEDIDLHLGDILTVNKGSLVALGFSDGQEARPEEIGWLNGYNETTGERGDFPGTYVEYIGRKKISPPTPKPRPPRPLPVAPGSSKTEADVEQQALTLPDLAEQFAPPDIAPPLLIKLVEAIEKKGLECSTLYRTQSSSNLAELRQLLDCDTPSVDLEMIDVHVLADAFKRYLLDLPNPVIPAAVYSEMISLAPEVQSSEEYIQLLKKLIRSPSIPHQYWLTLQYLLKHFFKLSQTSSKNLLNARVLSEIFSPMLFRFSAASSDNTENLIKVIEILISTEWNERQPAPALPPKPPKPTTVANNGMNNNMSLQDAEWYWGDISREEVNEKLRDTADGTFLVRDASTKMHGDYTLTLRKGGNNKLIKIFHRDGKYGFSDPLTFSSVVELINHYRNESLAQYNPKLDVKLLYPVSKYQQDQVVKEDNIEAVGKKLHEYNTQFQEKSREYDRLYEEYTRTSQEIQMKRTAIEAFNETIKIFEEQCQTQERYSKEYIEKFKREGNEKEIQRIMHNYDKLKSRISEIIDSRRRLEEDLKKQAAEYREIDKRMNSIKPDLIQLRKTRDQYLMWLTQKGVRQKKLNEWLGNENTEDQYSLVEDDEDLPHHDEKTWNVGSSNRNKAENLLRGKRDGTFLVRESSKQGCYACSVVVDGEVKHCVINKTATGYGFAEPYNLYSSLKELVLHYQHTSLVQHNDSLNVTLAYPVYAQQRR

[6] = biological target: mTOR (Homo sapiens, UniProt P42345); assay: mTOR kinase assay (Kinase-Glo Luminescent Kinase Assay); type: biochemical; settings: 10 µM ATP, 60 min, average of two determinations
[7] = Homo sapiens, MCF7, MTT, 72 h, average of two separate determinations, read-out: IC50 (µM) MCF-7
[8] = Homo sapiens, HepG2, HepG-2 cells

SMILES | melting point [°C] | IC50 [5] [µM] | IC50 [6] [µM] | IC50 ([1]; Homo sapiens) [µM] | IC50 ([2]; Homo sapiens) [µM] | IC50 [3, 7] [µM] | IC50 [4, 8] [µM] | IC50 [1] [µM] | IC50 [2] [µM] | IC50 ([3]; MTT, 72 h, average of two separate determinations, read-out: IC50 (µM) MCF-7) [µM] | IC50 ([3]; read-out: IC50 value against MCF-7 cell (conclusions text, unit inferred)) [µM] | IC50 ([4]; HepG-2 cells) [µM]
CC(C)(C#N)c1ccc(Nc2c(NC(=O)NS(=O)(=O)c3ccc(F)cc3)cnc3ccc(Br)cc23)cc1 [19a, N-((6-Bromo-4-((4-(2-cyanopropan-2-yl)phenyl)amino)quinolin-3-yl)carbamoyl)-4-fluorobenzenesulfonamide carboxamide] | – | 0.72 | 2.62 | – | – | – | – | 66.6 ± 1.28 | 38.5 ± 1.04 | 3.88 ± 0.58 | 2.88 ± 0.58 | 33.3 ± 1.52
COc1ccc(Nc2c(NC(=O)NS(=O)(=O)c3ccc(C(C)(C)C)cc3)cnc3ccc(Br)cc23)cc1 [20d, N-((6-Bromo-4-((4-methoxyphenyl)amino)quinolin-3-yl)carbamoyl)-4-(tert-butyl)benzenesulfonamide] | 263.3 to 264.2 | – | – | > 100 | 32.1 ± 1.18 | 10.5 ± 0.98 | 33.2 ± 1.26 | – | – | – | – | –
Cc1ccc(S(=O)(=O)NC(=O)Nc2cnc3ccc(Br)cc3c2Nc2ccc(C(C)(C)C#N)cc2)cc1 [19c, N-((6-Bromo-4-((4-(2-cyanopropan-2-yl)phenyl)amino)quinolin-3-yl)carbamoyl)-4-methylbenzenesulfonamide] | 289.2 to 290.4 | – | – | 40.6 ± 1.11 | 29 ± 1.31 | 3.96 ± 0.59 | 31.2 ± 1.5 | – | – | – | – | –
COc1ccc(Nc2c(NC(=O)NS(=O)(=O)c3ccc(F)cc3)cnc3ccc(Br)cc23)cc1 [20a, N-((6-Bromo-4-((4-methoxyphenyl)amino)quinolin-3-yl)carbamoyl)-4-fluorobenzenesulfonamide] | 289.1 to 290.2 | – | – | > 100 | 26.3 ± 1.13 | 7.65 ± 0.88 | 20.3 ± 1.04 | – | – | – | – | –
CC(C)(C#N)c1ccc(Nc2c(NC(=O)NS(=O)(=O)c3ccc(Cl)cc3)cnc3ccc(Br)cc23)cc1 [19b, N-((6-Bromo-4-((4-(2-cyanopropan-2-yl)phenyl)amino)quinolin-3-yl)carbamoyl)-4-chlorobenzenesulfonamide] | 279.2 to 280.1 | – | – | 34.3 ± 1.32 | > 100 | 15.1 ± 1.1 | 30.2 ± 1.45 | – | – | – | – | –
Cn1c(=O)n(-c2ccc(C(C)(C)C#N)cc2)c2c3cc(-c4cnc5ccccc5c4)ccc3ncc21 [NVP-BEZ235, reference compound] | – | – | – | 0.2 ± 0.11 | 0.36 ± 0.86 | 0.14 ± 0.1 | 0.54 ± 0.83 | – | – | – | – | –
COc1ccc(Nc2c(NC(=O)NS(=O)(=O)c3ccc(C)cc3)cnc3ccc(Br)cc23)cc1 [20c, N-((6-Bromo-4-((4-methoxyphenyl)amino)quinolin-3-yl)carbamoyl)-4-methylbenzenesulfonamide] | 279.2 to 280.6 | – | – | > 100 | 23.4 ± 1.12 | 4.94 ± 0.64 | 26.8 ± 1.22 | – | – | – | – | –
COc1ccc(Nc2c(NC(=O)NS(=O)(=O)c3ccc(Cl)cc3)cnc3ccc(Br)cc23)cc1 [20b, N-((6-Bromo-4-((4-methoxyphenyl)amino)quinolin-3-yl)carbamoyl)-4-chlorobenzenesulfonamide] | 282.2 to 283.1 | – | – | > 100 | 30.2 ± 1.23 | 10.7 ± 0.97 | 22.6 ± 1.12 | – | – | – | – | –
CC(C)(C)c1ccc(S(=O)(=O)NC(=O)Nc2cnc3ccc(Br)cc3c2Nc2ccc(C(C)(C)C#N)cc2)cc1 [19d, N-((6-Bromo-4-((4-(2-cyanopropan-2-yl)phenyl)amino)quinolin-3-yl)carbamoyl)-4-(tert-butyl)benzenesulfonamide] | 287.2 to 288.4 | – | – | 68.2 ± 1.32 | 30.6 ± 1.45 | 9.95 ± 0.99 | > 100 | – | – | – | – | –

Now from value to molecule, other results behind:

melting point [°C] | IC50 [5] [µM] | IC50 [6] [µM] | SMILES | IC50 ([1]; Homo sapiens) [µM] | IC50 ([2]; Homo sapiens) [µM] | IC50 [3, 7] [µM] | IC50 [4, 8] [µM] | IC50 [1] [µM] | IC50 [2] [µM] | IC50 ([3]; MTT, 72 h, average of two separate determinations, read-out: IC50 (µM) MCF-7) [µM] | IC50 ([3]; read-out: IC50 value against MCF-7 cell (conclusions text, unit inferred)) [µM] | IC50 ([4]; HepG-2 cells) [µM]
259.4 to 260.3 | – | – | CC(C)(C)c1ccc(S(=O)(=O)NC(=O)Nc2cnc3ccc(Br)cc3c2Nc2ccc(Br)cc2)cc1 [21d, N-((6-Bromo-4-((4-bromophenyl)amino)quinolin-3-yl)carbamoyl)-4-(tert-butyl)benzenesulfonamide] | > 100 | 16.2 ± 1.2 | 52.7 ± 1.72 | 17 ± 1.22 | – | – | – | – | –
290.8 to 291.2 | – | – | COc1ccc(Nc2c(NC(=O)NS(=O)(=O)c3ccc(Cl)cc3)c(C)nc3ccc(OC)cc23)cc1 [23a, 4-Chloro-N-((6-methoxy-4-((4-methoxyphenyl)amino)-2-methylquinolin-3-yl)carbamoyl)benzenesulfonamide] | > 100 | 39.8 ± 1.59 | 6.3 ± 0.79 | 16 ± 1.1 | – | – | – | – | –
284.1 to 285.4 | – | – | O=C(Nc1cnc2ccc(Br)cc2c1Nc1ccc(Br)cc1)NS(=O)(=O)c1ccc(Cl)cc1 [21b, N-((6-Bromo-4-((4-bromophenyl)amino)quinolin-3-yl)carbamoyl)-4-chlorobenzenesulfonamide] | > 100 | 71.1 ± 1.85 | 13.8 ± 1.14 | 11.1 ± 1.04 | – | – | – | – | –
285.3 to 286.1 | – | – | COc1ccc2nc(C)c(NC(=O)NS(=O)(=O)c3ccc(F)cc3)c(Nc3ccc(F)c(Cl)c3)c2c1 [23d, N-((4-((3-Chloro-4-fluorophenyl)amino)-6-methoxy-2-methylquinolin-3-yl)carbamoyl)-4-fluorobenzenesulfonamide] | 57.9 ± 0.99 | 38.1 ± 0.96 | 57 ± 1.75 | 6.08 ± 1.04 | – | – | – | – | –
356.1 to 357.3 | – | – | COc1ccc2nc(C)c(NC(=O)NS(=O)(=O)c3ccc(F)cc3)c(Nc3ccc(Br)cc3)c2c1 [23c, N-((4-((4-Bromophenyl)amino)-6-methoxy-2-methylquinolin-3-yl)carbamoyl)-4-fluorobenzenesulfonamide] | 39.8 ± 1.25 | 13 ± 0.84 | 25.4 ± 1.43 | 32.1 ± 1.12 | – | – | – | – | –
278.7 to 279.9 | – | – | Cc1ccc(S(=O)(=O)NC(=O)Nc2cnc3ccc(Br)cc3c2Nc2ccc(F)c(Cl)c2)cc1 [22c, N-((6-Bromo-4-((3-chloro-4-fluorophenyl)amino)quinolin-3-yl)carbamoyl)-4-methylbenzenesulfonamide] | 16.7 ± 0.88 | > 100 | 16.8 ± 1.22 | 11.3 ± 0.84 | – | – | – | – | –
290.1 to 291.6 | – | – | CC(C)(C)c1ccc(S(=O)(=O)NC(=O)Nc2cnc3ccc(Br)cc3c2Nc2ccc(F)c(Cl)c2)cc1 [22d, N-((6-Bromo-4-((3-chloro-4-fluorophenyl)amino)quinolin-3-yl)carbamoyl)-4-(tert-butyl)benzenesulfonamide] | 29.3 ± 2.23 | 22.4 ± 1.21 | 46.3 ± 1.67 | 28.4 ± 0.89 | – | – | – | – | –
279.6 to 280.2 | – | – | Cc1ccc(S(=O)(=O)NC(=O)Nc2cnc3ccc(Br)cc3c2Nc2ccc(Br)cc2)cc1 [21c, N-((6-Bromo-4-((4-bromophenyl)amino)quinolin-3-yl)carbamoyl)-4-methylbenzenesulfonamide] | > 100 | 22.7 ± 1.35 | 16.6 ± 1.22 | 31.1 ± 1.49 | – | – | – | – | –
278.7 to 279.5 | – | – | O=C(Nc1cnc2ccc(Br)cc2c1Nc1ccc(Br)cc1)NS(=O)(=O)c1ccc(F)cc1 [21a, N-((6-Bromo-4-((4-bromophenyl)amino)quinolin-3-yl)carbamoyl)-4-fluorobenzenesulfonamide] | > 100 | 59 ± 1.76 | 37.6 ± 1.57 | 45.7 ± 1.66 | – | – | – | – | –
282.3 to 283.7 | – | – | O=C(Nc1cnc2ccc(Br)cc2c1Nc1ccc(F)c(Cl)c1)NS(=O)(=O)c1ccc(Cl)cc1 [22b, N-((6-Bromo-4-((3-chloro-4-fluorophenyl)amino)quinolin-3-yl)carbamoyl)-4-chlorobenzenesulfonamide] | 17.7 ± 0.95 | > 100 | 6.84 ± 0.83 | 6.44 ± 0.89 | – | – | – | – | –
295.1 to 296.3 | – | – | O=C(Nc1cnc2ccc(Br)cc2c1Nc1ccc(F)c(Cl)c1)NS(=O)(=O)c1ccc(F)cc1 [22a, N-((6-Bromo-4-((3-chloro-4-fluorophenyl)amino)quinolin-3-yl)carbamoyl)-4-fluorobenzenesulfonamide] | 52.5 ± 1.03 | 12 ± 0.91 | 22.8 ± 1.35 | 19.63 ± 0.18 | – | – | – | – | –
